This is an account of results in PubChem BioAssay AID2401 (Southern Research Specialized Biocontainment Screening …, 2010).

The subject of this assay is S. Typhimurium GFP reporter counter-screen, fluorescence, 4 h. Briefly: nmpC-GFP reporter counter-screen in S. Typhimurium, dose response, counter-screen for PhoP regulon inhibitor project, Salmonella Typhimurium, GFP fluorescence (AID 2401).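 Note: S. typhimurium with Mg-insensitive nmpC-GFP reporter grown at 10 µM Mg2+; drop in reporter fluorescence reflects general culture growth inhibition.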
In the case of `Cc1ccc(S(=O)(=O)/N=C2/C=C(Sc3ncn[nH]3)C(=O)c3ccccc32)cc1`, the IC50 was 32.6 µM.

On to `O=[N+]([O-])c1cc(CN2CCOCC2)c2cccnc2c1O`, for which the IC50 was 27.2 µM.

Turning to `Nc1c(Cl)ncnc1N/N=C/c1ccccn1`, the IC50 is 25.5 µM.

For `COc1c(N2CCN(C(=S)NCc3ccccc3)C(C)C2)c(F)cc2c(=O)c(C(=O)O)cn(C3CC3)c12` (configuration not stated), the IC50 is 90.4 µM.

As to `O=C(/C=C/c1ccccc1Cl)c1ccccc(=O)c1O`, the IC50 is 23.8 µM.

For `O=C(c1ccc(F)cc1)C(CN1CCOCC1)c1ccccc1` (configuration not stated), the IC50 was 144 µM.

With `COc1ccc(C(C[N+](=O)[O-])n2nc(C)cc2C)cc1` (configuration not stated), the IC50 was 13.4 µM.

Consider `Oc1cccc(Nc2nc(NCC3CCCO3)c3ccccc3n2)c1` (configuration not stated), for which the IC50 is 99.8 µM.

On to `Cc1ccc(C(=O)N/N=C/c2cc(Br)ccc2O)cn1`, for which the IC50 was 55.7 µM.

With `Nc1nnc(-c2cccc(Cl)c2Cl)c(N)n1`, the IC50 is 60.5 µM.

Consider `CCCCCCCCCCOC(=O)Cn1c(COc2ccc(C)cc2)[n+](C)c2ccccc21`, for which the IC50 is 19.8 µM.

With `Cc1ccccc1OCc1n(CC(=O)OC2CC(C)CCC2C(C)C)c2ccccc2[n+]1C` (configuration not stated), the IC50 was 65.6 µM.

Consider `O=C(N/N=C/c1cc(Cl)ccc1O)c1cccnc1`, for which the IC50 is 25.6 µM.

Turning to `CCOc1ccc(Nc2c3ccccc3nc3ccccc23)cc1`, the IC50 is 77.3 µM.

On to `COc1nsnc1NS(=O)(=O)c1ccc(NC(=S)NC(=O)c2cccnc2)cc1`, for which the IC50 was 42.6 µM.

Turning to `C[CH2][Hg][S]c1ccccc1C(=O)O`, the IC50 is 54.9 µM.

Regarding `CCC(C)(C)c1ccc(OCCCC[n+]2ccccc2)c(C(C)(C)CC)c1`, the IC50 was 34.9 µM.

As to `NCCc1c(-c2ccccc2)n(-c2ccccc2)c2ccccc12`, the IC50 was 43.7 µM.

On to `Cc1nc(N)nc(N)c1/C=C/C(C)(C)c1ccc(Cl)cc1`, for which the IC50 was 8.11 µM.

`CCOC(=O)N1CCN(C(c2cccnc2)c2ccc3cccnc3c2O)CC1` (configuration not stated): the IC50 was 41.8 µM.

`CCCCCCCCCCOC(=O)Cn1c(COc2ccccc2)[n+](C)c2ccccc21`: the IC50 was 19.2 µM.

Regarding `Cc1cc(C(=O)N/N=C/c2cc(Br)cc([N+](=O)[O-])c2O)c2ccccc2n1`, the IC50 was 109 µM.

For the compound `Oc1c(CN2CCCCC2)cc(COCc2ccccc2)c2cccnc12`, the IC50 was 80.5 µM.

For the compound `O=C(C[n+]1cc(-c2ccc(Cl)cc2)n2c1CCC2)Nc1nc(-c2ccccc2)cs1`, the IC50 was 84 µM.

As for `COc1cccc(/C=N/Nc2ncc(C(F)(F)F)cc2Cl)c1O`, the IC50 is 126 µM.

Consider `C=CC1=C(C(=O)O)N2C(=O)[C@@H](NC(=O)/C(=N\O)c3csc(N)n3)[C@H]2SC1` (stereo in doubt), for which the IC50 is 33.3 µM.

`CCCCCCNC(=O)c1cn(CC)c2cc(N3CCN(C)CC3)c(F)cc2c1=O`: the IC50 is 38.9 µM.

As to `C/C(=N\Nc1nc2ccccc2[nH]1)c1ccccn1`, the IC50 was 22.5 µM.

`O=C1C=C(O)c2c(O)cc(O)c(O)c2C1=O`: the IC50 is 76.8 µM.

As to `O=C1c2ccccc2NC(c2ccc(-c3ccc(Br)cc3)o2)N1O` (configuration not stated), the IC50 is 38.7 µM.

In the case of `CCCNC1=C(C)C(=O)C2=C(C1=O)C(COC(N)=O)[C@]1(OC)C3NC3CN21` (some centres not stated), the IC50 was 128 µM.

As for `COc1ccc(/C=N/Nc2cc(C)nc3ccccc23)cc1`, the IC50 is 51.7 µM.

With `O=C(Nc1ccccc1)Nc1ncc([N+](=O)[O-])s1`, the IC50 is 37.1 µM.

In the case of `Cn1cnc([N+](=O)[O-])c1Oc1cccc(O)c1`, the IC50 is 143 µM.

Regarding `CN(Cc1ccccc1)CC(O)COc1ccc(CNCc2ccc(Cl)s2)cc1` (configuration not stated), the IC50 was 91.9 µM.

`O=C(N/N=C/c1cc2c3c(c1O)CCCN3CCC2)c1ccccc1O`: the IC50 is 95.3 µM.

Turning to `CC[C@H]1OC(=O)[C@H](C)[C@@H](O[C@H]2C[C@@](C)(OC)[C@@H](O)[C@H](C)O2)[C@H](C)[C@@H](O[C@@H]2O[C@H](C)C[C@H](N(C)C)[C@H]2O)[C@](C)(O)C[C@@H](C)[C@@H]2N[C@@H](COCCOC)O[C@H]([C@H]2C)[C@]1(C)O`, the IC50 is 25.1 µM.

For the compound `Cc1nnc(N/N=C/c2ccccn2)[nH]c1=O`, the IC50 is 18 µM.

With `C/C(CC(=O)Nc1ccc(Cl)c(C(F)(F)F)c1)=N\NC(=O)c1ccccc1O`, the IC50 was 117 µM.

Take `Cc1scc(C(=O)N/N=C/c2ccc([N+](=O)[O-])o2)c1C`: the IC50 was 114 µM.

Regarding `C/C(CC(=O)Nc1ccc(Cl)c(C(F)(F)F)c1)=N\NC(=O)c1cc2ccccc2cc1O`, the IC50 was 80.6 µM.

Regarding `NC1=NC[C@H](Cc2ccc(O)cc2)N1CCCCC1CCCCC1`, the IC50 was 51 µM.

With `Nc1nc(N)c(Cc2ccc(Cl)cc2Cl)c(N)n1`, the IC50 was 100 µM.

Take `Oc1c(C(Nc2cccc(C(F)(F)F)c2)c2cccnc2)ccc2cccnc12` (configuration not stated): the IC50 is 39.3 µM.

With `O=C(N/N=C/c1cc(O)ccc1Br)c1cccnc1`, the IC50 is 25.4 µM.

Consider `CC(=O)Oc1ccc(C(=O)[C@H]2[C@H]3C(=O)N(c4ccc5ccccc5c4)C(=O)[C@H]3[C@@H]3C=CC=NN32)cc1`, for which the IC50 is 128 µM.

Take `C#CCOCCOCCOCCNc1nc(N2CCN(C(=O)CCCCCCCCCCNC(=O)[C@H]([C@@H](C)CC)n3cc(CCCCN=C(N)N)nn3)CC2)nc(N2CCN(C(=O)CCCCCCCCCCNC(=O)[C@H]([C@@H](C)CC)n3cc(CCCCN=C(N)N)nn3)CC2)n1`: the IC50 was 43.4 µM.

Turning to `CCCCOc1ccc(CSC(=N)N)cc1[N+](=O)[O-]`, the IC50 was 115 µM.

As for `N=c1n(Cc2ccccc2)c2ccccc2n1CC(O)COc1ccc(Cl)cc1Cl` (configuration not stated), the IC50 was 25.9 µM.

For the compound `Nc1cc2nsnc2cc1Br`, the IC50 is 77.3 µM.

Turning to `CCCCCCCCCCOC(=O)C[N+](C)(C)C/C=C(/C)Cl`, the IC50 is 44.9 µM.

As for `Cc1cc(C)n(-c2nc(NCCN(C)C)c3c4c(sc3n2)CCCC4)n1`, the half-maximal inhibitory concentration (IC50) is 92.1 µM.

`CCn1nc(C(=O)O)c(=O)c2cc3c(cc21)OCO3`: the IC50 was 49 µM.

As to `COc1ccc2[nH]c3c(C)c4ccncc4c(C)c3c2c1`, the IC50 was 20.5 µM.

Regarding `CCC(C)N1CCC2(CC1)N=c1c(c3c4c5c(C)c(O)c3c(O)c1=NC(=O)C(C)=CC=C[C@H](C)[C@H](O)[C@@H](C)[C@@H](O)[C@@H](C)[C@H](OC(C)=O)[C@H](C)[C@@H](OC)C=CO[C@@](C)(O5)C4=O)N2` (some centres not stated), the IC50 was 2.28 µM.

Turning to `Clc1ccc(CNCc2cccs2)cc1Cl`, the IC50 is 76.1 µM.

For `Cc1[nH]c2ccccc2c1C(=O)COC(=O)c1ccc([N+](=O)[O-])s1`, the IC50 is 130 µM.

For the compound `C=CCc1cccc(C2Nc3ccccc3C(=O)N2O)c1O` (configuration not stated), the IC50 is 80.9 µM.

Regarding `C=CS(=O)(=O)c1ccc(Oc2ccc(S(=O)(=O)C=C)cc2)cc1`, the IC50 is 111 µM.

As for `CO[C@H]1/C=C/O[C@@]2(C)Oc3c(C)c(O)c4c(O)c(c(C=NN5CCN(C)CC5)c(O)c4c3C2=O)NC(=O)/C(C)=C\C=C\[C@H](C)[C@H](O)[C@@H](C)[C@@H](O)[C@@H](C)[C@H](OC(C)=O)[C@@H]1C`, the IC50 was 6.41 µM.

`C[C@H]1c2cccc(O)c2C(O)=C2C(=O)C3(O)C(O)=C(C(N)=O)C(=O)[C@@H](N(C)C)[C@@H]3[C@@H](O)[C@@H]21` (some centres not stated): the IC50 was 3.63 µM.

Regarding `Oc1cccc(C=NCc2ccccc2)c1O`, the IC50 was 144 µM.

For the compound `Oc1ccc(Cl)cc1Cc1cc(Cl)ccc1O`, the IC50 was 38.6 µM.

Consider `Nc1ncn([C@@H]2O[C@H](CO)[C@@H](O)[C@H]2O)c(=O)n1`, for which the IC50 was 33.6 µM.

Take `CS(=O)(=O)c1ccc([C@@H](O)[C@@H](CO)NC(=O)C(Cl)Cl)cc1`: the IC50 is 86.2 µM.

Regarding `Oc1c(C(Nc2nc3ccccc3s2)c2ccco2)ccc2cccnc12` (configuration not stated), the IC50 was 104 µM.

As for `CC[n+]1c(/C=C/c2ccc(N(C)C)cc2)ccc2ccccc21`, the IC50 was 37.3 µM.

Consider `CCn1cc(C(=O)O)c(=O)c2cc(F)c(N3CCN(C(=S)NC(=O)c4ccccc4C)CC3)cc21`, for which the IC50 is 27.6 µM.

Regarding `O=C(C[n+]1cccc(CNC(=O)c2ccc(OC(F)F)cc2)c1)Nc1ccc(SC(F)F)cc1`, the half-inhibitory concentration (IC50) is 78.4 µM.

As for `CCCCCCCCCCCCCCCC[n+]1ccc(/C=N/O)cc1`, the IC50 was 28.7 µM.

As to `CC[C@H]1OC(=O)C[C@@H](O)[C@H](C)[C@@H](O[C@@H]2O[C@H](C)C[C@H](N(C)C)[C@H]2O)[C@@H](CC=O)C[C@@H](C)C(=O)C=C[C@]2(C)O[C@H]2[C@@H]1C`, the IC50 was 14.2 µM.

Regarding `C=CC1=C(C(=O)O)N2C(=O)[C@@H](NC(=O)/C(=N/OCC(=O)O)c3csc(N)n3)[C@H]2SC1`, the IC50 was 30.3 µM.

For the compound `CC1CCc2cc(F)cc3c(=O)c(C(=O)O)cn1c23` (configuration not stated), the IC50 is 20.9 µM.

As to `O=C(NCCNc1ccc([N+](=O)[O-])cc1C(F)(F)F)c1cccc(F)c1`, the IC50 is 106 µM.

Consider `CCn1cc(C(=O)O)c(=O)c2cc(F)c(N3CCN(C(=S)NC(=O)c4cccc(F)c4)CC3)cc21`, for which the IC50 is 69.6 µM.

Consider `CN1/C(=C\C=C\C2=[N+](C)c3ccc4ccccc4c3C2(C)C)C(C)(C)c2ccccc21`, for which the IC50 was 9.42 µM.

`Cc1nn(-c2ccccc2)c(N2CCCC2)c1/C=N/Nc1ccc(S(N)(=O)=O)cc1[N+](=O)[O-]`: the IC50 was 88.7 µM.

For `Oc1cccc2ccc(Nc3ccccn3)nc12`, the IC50 is 10.7 µM.

Take `Nc1nonc1C(=O)N/N=C/c1cc(Br)ccc1O`: the IC50 is 9.03 µM.

Turning to `O=c1[nH][nH]c(-c2ccccc2O)c1C(C[N+](=O)[O-])c1ccc(Br)cc1` (configuration not stated), the IC50 is 51.7 µM.

`Cc1ccc(C(C[N+](=O)[O-])c2c(N)n(C)c(=O)n(C)c2=O)cc1` (configuration not stated): the IC50 was 15.1 µM.

For the compound `CCn1cc(C(=O)O)c(=O)c2cc(F)c(N3CCNCC3)cc21`, the IC50 is 0.88 µM.

For the compound `NC1=NC[C@H](c2ccccc2)N1CCCCC1CCCCC1`, the IC50 was 52.2 µM.

Turning to `COC(=O)c1cc(C)nc2c1C(=O)C(=O)C=C2N1CCOCC1`, the IC50 is 118 µM.

For `O=C1NC(=S)S/C1=C\C=C\c1ccc([N+](=O)[O-])o1`, the IC50 is 21.7 µM.

`N=c1c2c(n(Cc3ccc(Br)cc3)c3c1CCC3)CCCC2`: the half-inhibitory concentration (IC50) was 132 µM.

For `Cc1cc(C(C)(C)CC(C)(C)C)ccc1OCCOCC[N+](C)(C)Cc1ccccc1`, the IC50 was 26.9 µM.

Turning to `CCOc1cc(/C=N/N=C(N)N)ccc1OCc1ccc(Cl)cc1`, the IC50 was 52.4 µM.

Turning to `CCn1cc(C(=O)O)c(=O)c2cnc(N3CCNCC3)nc21`, the IC50 is 68.4 µM.

`C/C(=N\N=C(N)N)c1ccc(Cl)c(Cl)c1`: the IC50 is 94.2 µM.

Regarding `O=[N+]([O-])c1ccc(O)c(/C=N/Nc2ccccn2)c1`, the IC50 was 13.9 µM.

For the compound `Oc1cc(Cl)ccc1Oc1ccc(Cl)cc1Cl`, the IC50 was 0.49 µM.
